Publication PMC6749236, “Synthesis of Novel 2-(Het)arylpyrrolidine Derivatives and Evaluation of Their Anticancer and Anti-Biofilm Activity” (Molecules, 2019)
Where “and” joins values, the source holds several entries; their conditions need not be identical. Equal entries are not always repeated. Marks after values point to notes of the source that are not given here.

What was measured:
M-Hela = experiment: Cytotoxicity assay (Cytell Cell Imaging, DAPI/propidium iodide), cancer cell line; assay type: cell-based; details: Homo sapiens; M-Hela; tested at 1–100 µM; three independent experiments; read-out: IC50 Cancer Cell Line M-Hela
Chang liver cell line = experiment: Cytotoxicity assay (Cytell Cell Imaging), normal cell line; assay type: cell-based; details: Homo sapiens, tested at 1–100 µM, three independent experiments, read-out: IC50 Normal Cell Line Chang Liver
[1] = test system: Acinetobacter calcoaceticus VKPM B-10353; experiment: Biofilm formation, crystal violet assay; assay type: cell-based; details: A. calcoaceticus VKPM B-10353, control = 100%
Method: (§1) Bacterial strains and cultivation conditions. For the detection of biofilms, formation strains Vibrio aquamarinus DSM 26054 and Acinetobacter calcoaceticus VKPM B-10353 were used. These strains form biofilms, making them useful for studying biofilms.
(§2) The bacterial strains Acinetobacter calcoaceticus VKPM B-10353, E. coli MG1655 (pRecA-lux), and E. coli MG1655 (pSoxS-lux) were cultivated in Luria–Bertani (LB) medium under constant shaking to early exponential phase at 37 °C. Cells were used immediately for stress induction tests. One hundred micrograms of ampicillin per milliliter were added into LB medium at cultivation of E. coli MG1655 (pRecA-lux) and E. coli MG1655 (pSoxS-lux). Strain V. aquamarinus DSM 26054 was grown in LB medium supplemented with 3% NaCl.
(§3) The test compounds were dissolved in DMSO to the concentration of 1 × 10^−2 M. Then, they were diluted with ethanol. The control solutions were analogous dilutions of DMSO in ethanol. The tested compounds were also compared with the standard antibiotic azithromycin. Azithromycin was dissolved in DMSO to the concentration of 5 × 10^−3 M and then diluted with deionized water.
(§4) Test system for evaluation of biofilms production. To quantify the formation of biofilms, the crystal violet assay was used, with some modifications. The necessary concentrations of the test compounds were prepared as described above.
(§5) V. aquamarinus DSM 26054 was cultivated for 24 h in LB medium supplemented with 3% NaCl in the Innova 40R shaker incubator (New Brunswick Scientific, USA) at 25 °C and 200 rpm. A. calcoaceticus VKPM B-10353 was cultivated for 24 h in LB medium in the Innova 40R shaker incubator (New Brunswick Scientific, Enfield, CT, USA) at 30 °C and 200 rpm. Then, the suspensions of the daily culture of V. aquamarinus DSM 26054 and A. calcoaceticus VKPM B-10353 were diluted with LB medium supplemented with 3% NaCl to the density of 1 × 10^8 cells/mL.
(§6) The resulting suspension (180 μL) was added to the wells of a polystyrene microplate (Nuova Aptaca, Canelli, Italy). To some of the wells, 20 μL of the test substances at various concentrations were added. Since solvents used could also influence the biofilm formation, 20 μL of the appropriate solvent was added to the other part of the wells at same dilutions (control). Six replicates were done for each treatment and control. The microplate was covered with a lid and wrapped with Parafilm (Bemis Company, Inc., Oshkosh, WI, USA).
(§7) After incubation at 25 °C for 72 h, biofilms were stained. The contents in the wells were removed by means of a dispenser. The wells were then carefully washed three times with 250 μL of sterile saline. The microplates were shaken to remove all non-adherent bacteria. Biofilms were fixed with 200 μL of 96% ethanol for 15 min. After the microplates had dried in air, 200 μL of 0.5% crystal violet was introduced into the wells. After 10 min, the dye was removed. The excess dye was removed by washing with water three times. After the microplates were air-dried, the dye in the wells bound to biofilms was dissolved with 200 μL of 96% ethanol. The extraction level (absorption) of crystal violet by ethanol was measured after 60 minutes at a wavelength of 570 nm using a FLUOstar Omega microplate reader (BMG Labtech, Offenburg, Germany) in optical density units (OD570). The intensity of biofilm formation directly corresponds to the intensity of staining of the contents of the wells with the dye. Biofilm formation was determined by the difference between the mean OD readings obtained in the presence of compounds and the control.
(§8) Each experiment was performed in triplicate. The values were expressed as mean + SD. Student’s t-test was used to compare these values. Differences were considered statistically significant at p < 0.05.

[2] = test system: Vibrio aquamarinus DSM 26054; experiment: Biofilm formation, crystal violet assay; assay type: cell-based; details: V. aquamarinus DSM 26054, control = 100%
Method: as §1, §2, §3, §4, §5, §6, §7, §8

[3] = test system: Escherichia coli MG1655 (pRecA-lux); experiment: Genotoxicity, bacterial lux-biosensor; assay type: cell-based
Excerpt: (§9) E. coli MG1655 (pRecA-lux) was used for the evaluation of the genotoxicity of the synthesized compounds. The biosensor with the PrecA promotor fixes the presence of the factors causing damage of DNA in a cell. The biosensor E. coli MG1655 (pSoxS-lux) was used for the evaluation of prooxidant activity. The biosensor with the PsoxS promoter fixes the production of superoxide anion and NO [75]. Bioluminescent strains were obtained by the transformation of E. coli MG1655 by hybrid plasmids pRecA-lux, pSoxS-lux. The gene cassette luxCDABE Photorhabdus luminescens under the control PrecA promoters was used in this biosensor. This plasmid was created on the basis of pBR322 and contained a selective marker of ampicillin resistance (Amp gene). The strains were kindly furnished by Manukhov I.V., Federal State Unitary Enterprise “GosNIIGenetika”).
as §2
(§10) Biosensors assay procedure. The detailed protocol of toxicity testing by means of a bacterial lux-biosensors is described in the article.
(§11) Calculation. The criterion of toxic influence was bioluminescence intensity change of the test object in the researched sample in comparison with the control sample.
(§12) The induction factor (I) was defined as the relation of luminescence intensity of a lux-biosensor suspension containing tested sample (Lc) to the luminescence intensity of a lux-biosensor control suspension (Lk): I = Lc/Lk.
If at significant differences from control induction factor values were ≤2, the detected genotoxic effect was evaluated as “weak”, if they were in the range from 2 to 10 as “medium”, and above 10 as “strong”. All the experiments were carried out three times independently.
(§13) Difference reliability of bioluminescence in experiment from control value was estimated by t-criterion with the help of Excel software. The conclusions about sample toxicity were made at p < 0.05.

[4] = test system: E. coli MG1655 (pSoxS-lux); experiment: Prooxidant activity, bacterial lux-biosensor; assay type: cell-based, Escherichia coli
Excerpt: as §9, §2, §10, §11, §12, §13

[5] = with metabolic activation (+S9), 10^−5 M
[6] = with metabolic activation (+S9), 10^−6 M
[7] = with metabolic activation (+S9), 10^−7 M
[8] = with metabolic activation (+S9), 10^−8 M
[9] = with metabolic activation (+S9), 10^−9 M
[10] = without metabolic activation (-S9), 10^−5 M
[11] = without metabolic activation (-S9), 10^−6 M
[12] = without metabolic activation (-S9), 10^−7 M
[13] = without metabolic activation (-S9), 10^−8 M
[14] = without metabolic activation (-S9), 10^−9 M

Row | Compound | IC50 (M-Hela) [µM] | IC50 (Chang liver cell line) [µM] | Biofilm Formation ([1]; 1 × 10^−5 M) [%] | Biofilm Formation ([1]; 1 × 10^−6 M) | Biofilm Formation ([1]; 1 × 10^−7 M) | Biofilm Formation ([1]; 1 × 10^−8 M) | Biofilm Formation ([1]; 1 × 10^−9 M) | Biofilm Formation ([2]; 1 × 10^−5 M) | Biofilm Formation ([2]; 1 × 10^−6 M) | Biofilm Formation ([2]; 1 × 10^−7 M) | Biofilm Formation ([2]; 1 × 10^−8 M) | Biofilm Formation ([2]; 1 × 10^−9 M) | Genotoxicity (induction factor, I) [3, 5] | Genotoxicity (induction factor, I) [3, 6] | Genotoxicity (induction factor, I) [3, 7] | Genotoxicity (induction factor, I) [3, 8] | Genotoxicity (induction factor, I) [3, 9] | Genotoxicity (induction factor, I) [3, 10] | Genotoxicity (induction factor, I) [3, 11] | Genotoxicity (induction factor, I) [3, 12] | further results
1 | O=C(Nc1ccc(Br)cc1)N1CCCC1c1ccc(Nc2c([N+](=O)[O-])c(Cl)cc3c2no[n+]3[O-])cc1O (stereo not drawn) [6d, 4-((4-(1-((4-Bromophenyl)carbamoyl)pyrrolidin-2-yl)-3-hydroxyphenyl)amino)-6-chloro-5-nitrobenzo[c][1,2,5]oxadiazole 1-oxide] | 25.5 ± 1.6 | 53 ± 3.8 | 89.50 | 95.71% | 50.00 * % | 46.95% and 46.95 * % | 79.16 * % | 63.12% | 24.11 * % | 10.70 * % | 6.46% and 6.46 * % | 67.29 * % | 0.66 ± 0.04 | 0.71 ± 0.03 | 0.71 ± 0.05 | 0.79 ± 0.03 | 0.76 ± 0.05 | 0.60 ± 0.02 | 0.70 ± 0.01 | 0.62 ± 0.03 | DNA-damaging property, in words ([3]; 10^−9–10^−5 M, with and without S9): do not belong to the class of DNA-damaging substances; Genotoxicity (induction factor, I) [3, 13]: 0.70 ± 0.01; Genotoxicity (induction factor, I) [3, 14]: 0.64 ± 0.03; Prooxidant activity (induction factor) ([4]; 10^−5 M): 1.10 ± 0.07; Prooxidant activity (induction factor) ([4]; 10^−6 M): 1.60 ± 0.23; prooxidant response, in words ([4]; 10^−6 M): weak response; Prooxidant activity (induction factor) ([4]; 10^−7 M): 1.11 ± 0.01; Prooxidant activity (induction factor) ([4]; 10^−8 M): 1.11 ± 0.07; Prooxidant activity (induction factor) ([4]; 10^−9 M): 1.34 ± 0.09; melting point: 166 to 170 °C (dec.)
2 | O=C(Nc1ccc(F)cc1)N1CCCC1c1ccc(Nc2c([N+](=O)[O-])c(Cl)cc3c2no[n+]3[O-])cc1O (stereo not drawn) [6e, 6-Chloro-4-((4-(1-((4-fluorophenyl)carbamoyl)pyrrolidin-2-yl)-3-hydroxyphenyl)amino)-5-nitrobenzo[c][1,2,5]oxadiazole 1-oxide] | 26 ± 1.8 | 48 ± 3 | 86.50 | 53.27 * % | 55.40 * % | 47.66 * % | 87.92 * % | 39.57 * % | 26.02 * % | 11.01% and 11.01 * % | 17.96 * % | 67.29% | 1.24 ± 0.02 | 1.47 ± 0.04 | 1.45 ± 0.02 | 1.35 ± 0.04 | 1.43 ± 0.01 | 2.00 ± 0.02 | 2.39 ± 0.02 | 2.46 ± 0.02 | detected genotoxic effect, class ([3]; concentration range of 10^−9–10^−5 M): medium (in the range from 2 to 10); Genotoxicity (induction factor, I) [3, 13]: 2.74 ± 0.04; Genotoxicity (induction factor, I) [3, 14]: 2.56 ± 0.10; Prooxidant activity (induction factor) ([4]; 10^−5 M): 0.84 ± 0.04; Prooxidant activity (induction factor) ([4]; 10^−6 M): 1.34 ± 0.10; Prooxidant activity (induction factor) ([4]; 10^−7 M): 1.85 ± 0.15; prooxidant response, in words ([4]; 10^−7 M): weak response; Prooxidant activity (induction factor) ([4]; 10^−8 M): 1.25 ± 0.28; Prooxidant activity (induction factor) ([4]; 10^−9 M): 0.93 ± 0.03; melting point: 175 to 177 °C (dec.)
